Measurements reported in patent US20100087623A1, “Method of extracting proteins and peptides from nano pearl powder” (priority 2008, published 2010).
“And” between values parts separate entries of the source, which are not always exact repeats. Identical values can stand only once.

System: tyrosinase (tyramine acid enzyme)
Assay: Inhibition of tyrosinase (tyramine acid enzyme) activity, dopachrome growth
Type: biochemical
Conditions: 2 mg/mL or 1 mg/mL, 37° C., pH 6.8
Procedure: Pearl powder solution is subjected to filter by employing a device called Centriprep YM3. […] In this experiment, effects of tyrosinase activation (i.e., dopachrome growth) caused by each of soluble organic compound extract of nono pearl powder and soluble organic compound extract of micro pearl powder are evaluated. Also, for pearl powder of the same effects of tyrosinase activation caused by organic compounds having a molecular weight more than 5 kDa and by organic compounds having a molecular weight less than 5 kDa are evaluated.
Referring to FIG. 11 and Table 7 again, experiment conditions are concentration of 1 mg/mL, temperature of 37° C., and pH value of 6.8.

- Inhibition (%) of tyramine acid enzyme (dopachrome growth) (0 minute): 0 ± 0%
- Inhibition (%) of tyramine acid enzyme (dopachrome growth) (5 minute): 36.5 ± 1.9%
- Inhibition (%) of tyramine acid enzyme (dopachrome growth) (10 minute): 48.6 ± 0.7%
- Inhibition (%) of tyramine acid enzyme (dopachrome growth) (15 minute): 54.3 ± 1.0%
- Inhibition (%) of tyramine acid enzyme (dopachrome growth) (30 minute): 53% and 54.7 ± 0.9%
- Inhibition (%) of tyramine acid enzyme (dopachrome growth) (45 minute): 37.1 ± 1.3%
- Inhibition (%) of tyramine acid enzyme (dopachrome growth) (60 minute): 21% and 21.6 ± 1.9%
SMILES: OC[C@H]1O[C@@H](Oc2ccc(O)cc2)[C@H](O)[C@@H](O)[C@@H]1O [arbutin]
